# From patent publication US20100222421A1, “Usage of Baicalein in the Preparation of a Pharmaceutical Composition for the Treatment of Traumatic Brain Injury” (National Defense Medical Center, priority 2009, published 2010)
# Tested on: IL-6-positive cells
# Test: Immunohistochemistry, IL-6-positive cells after CCI injury
# Format: in vivo, rat
# Details: single-dose 30 mg kg^-1 i.p.; cortical tissue adjacent to contusion core, 1 day post-injury
# Description: A previously described CCI injury procedure was utilized (Chen et al., 2003). Male Sprague-Dawley rats, which have body weight of 250-300 g, were anaesthetized with sodium pentobarbital (i.p.; 50 mgkg^−1; Rhone Merieux, Harlow, UK) and placed in a stereotaxic frame. A 5-mm craniotomy was performed over the left parietal cortex, centered on the coronal suture and 3 mm lateral to the sagittal suture. Considerable care was taken to avoid injury to the underlying dura. Injury was made using a pneumatic piston with a rounded metal tip (2.5 mm diameter) that was angled 22.5° C. to the vertical so that the tip was perpendicular with the brain surface at the centre of the craniotomy. A velocity of 4 ms^−1 and a deformation depth 2 mm below the dura were used. The bone flap was immediately replaced and sealed, and the scalp was closed with sutures. Body temperature was monitored throughout the surgery by a rectal probe; temperature was maintained at 37.0±0.5° C. using a heated pad. […] Testing after injury was as follows: (1) real-time quantitative RT-PCR analysis for TNF-α, IL-1β and IL-6 mRNA expression at 6 h post-injury (n=7 for each group); (2) FluoroJade B (FJB) staining, TNF-α, IL-1β and IL-6 immunohistochemistry, as well as ELISA at 24 h post-injury to assess degenerative neurons and to determine cytokine expression (n=7 for each group). […]
smiles,measurement,value
O=c1cc(-c2ccccc2)oc2cc(O)c(O)c(O)c12 [baicalein],reduction in IL-6-positive cells relative to vehicle,33%
